Tests used:
Format in all cases: in vivo
Details in all cases: 250 g/ha unless otherwise stated, evaluated after 13 days, five-point scale
[1] = test system: Amaranthus retoflexus (AMARE); assay: Test 1 glasshouse herbicide test, post-emergence application (Table B1)
Method in brief: (§1)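 Score is % phytotoxicity after 13 days, binned 1 (0–20%) to 5 (81–100%). Compound given at 250 g/ha unless stated, as acetone/water (50:50) spray with 0.5% Tween 20, one day post-sowing (pre-emergence) or after 8 days' growth (post-emergence); glasshouse at 24/16 °C day/night, 14 h light, 65% humidity.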

[2] = test system: Echinochloa crus-galli (ECHCG); assay: as above
Method in brief: as §1

[3] = test system: Ipomoea hederacea (IPOHE); assay: as above
Method in brief: as §1

Setaria faberi (SETFA) [4] = assay: as above
Method in brief: as §1

[5] = test system: Amaranthus retoflexus (AMARE); assay: Test 1 glasshouse herbicide test, pre-emergence application (Table B2)
Method in brief: as §1

[6] = test system: Echinochloa crus-galli (ECHCG); assay: as above
Method in brief: as §1

[7] = test system: Ipomoea hederacea (IPOHE); assay: as above
Method in brief: as §1

Setaria faberi (SETFA) [8] = assay: as above
Method in brief: as §1

| SMILES | % phytotoxicity AMARE, post-emergence application [1] | % phytotoxicity ECHCG, post-emergence application [2] | % phytotoxicity IPOHE, post-emergence application [3] | % phytotoxicity SETFA, post-emergence application (Setaria faberi (SETFA) [4]) | % phytotoxicity AMARE, pre-emergence application [5] | % phytotoxicity ECHCG, pre-emergence application [6] | % phytotoxicity IPOHE, pre-emergence application [7] | % phytotoxicity SETFA, pre-emergence application (Setaria faberi (SETFA) [8]) |
| --- | --- | --- | --- | --- | --- | --- | --- | --- |
| N#Cc1cccc(Oc2ncc(Cl)cn2)c1S(=O)(=O)CCC(F)F [Compound A97] | 5 (5=81 to 100%) | 4 (4=61 to 80%) | 4 (4=61 to 80%) | 2 (2=21 to 40%) | 5 (5=81 to 100%) | 4 (4=61 to 80%) | 5 (5=81 to 100%) | 4 (4=61 to 80%) |
| N#Cc1cccc(Oc2ncc(Cl)cn2)c1[S+]([O-])CCC(F)F (stereo not shown) [Compound A98] | 5 (5=81 to 100%) | 4 (4=61 to 80%) | 4 (4=61 to 80%) | 4 (4=61 to 80%) | 5 (5=81 to 100%) | 5 (5=81 to 100%) | 5 (5=81 to 100%) | 5 (5=81 to 100%) |
| N#Cc1cccc(Oc2ncc(Cl)cn2)c1SCCC(F)F [Compound A99] | 5 (5=81 to 100%) | 5 (5=81 to 100%) | 4 (4=61 to 80%) | 4 (4=61 to 80%) | 5 (5=81 to 100%) | 5 (5=81 to 100%) | 5 (5=81 to 100%) | 5 (5=81 to 100%) |
| N#Cc1cccc(Oc2ncc(Cl)cn2)c1SCCCC(F)F [Compound A100] | 5 (5=81 to 100%) | 5 (5=81 to 100%) | 5 (5=81 to 100%) | 4 (4=61 to 80%) | 5 (5=81 to 100%) | 5 (5=81 to 100%) | 5 (5=81 to 100%) | 5 (5=81 to 100%) |
| N#Cc1cccc(Oc2ncc(Cl)cn2)c1[S+]([O-])CCCC(F)F (stereo not shown) [Compound A101] | 5 (5=81 to 100%) | 4 (4=61 to 80%) | 4 (4=61 to 80%) | 4 (4=61 to 80%) | 5 (5=81 to 100%) | 5 (5=81 to 100%) | 5 (5=81 to 100%) | 5 (5=81 to 100%) |
| N#Cc1cccc(Oc2ncc(Cl)cn2)c1S(=O)(=O)CCCC(F)F [Compound A102] | 5 (5=81 to 100%) | 4 (4=61 to 80%) | 4 (4=61 to 80%) | 4 (4=61 to 80%) | 5 (5=81 to 100%) | 5 (5=81 to 100%) | 5 (5=81 to 100%) | 5 (5=81 to 100%) |
| O=S(=O)(CCCC(F)F)c1c(Cl)cccc1Oc1ncc(Cl)cn1 [Compound A103] | 4 (4=61 to 80%) | 1 (1=0 to 20%) | 2 (2=21 to 40%) | 1 (1=0 to 20%) | 4 (4=61 to 80%) | 2 (2=21 to 40%) | 4 (4=61 to 80%) | 2 (2=21 to 40%) |
| [O-][S+](CCCC(F)F)c1c(Cl)cccc1Oc1ncc(Cl)cn1 (stereo not shown) [Compound A104] | 5 (5=81 to 100%) | 5 (5=81 to 100%) | 5 (5=81 to 100%) | 5 (5=81 to 100%) | 5 (5=81 to 100%) | 5 (5=81 to 100%) | 5 (5=81 to 100%) | 5 (5=81 to 100%) |
| FC(F)CCCSc1c(Cl)cccc1Oc1ncc(Cl)cn1 [Compound A105, 5-chloro-2-[3-chloro-2-(4,4-difluorobutylsulfanyl)phenoxy]pyrimidine] | 5 (5=81 to 100%) | 5 (5=81 to 100%) | 4 (4=61 to 80%) | 5 (5=81 to 100%) | 5 (5=81 to 100%) | 5 (5=81 to 100%) | 4 (4=61 to 80%) | 5 (5=81 to 100%) |
| N#Cc1cccc(Oc2ncc(Cl)cn2)c1SCCOC(F)(F)F [Compound A106] | 5 (5=81 to 100%) | 5 (5=81 to 100%) | 3 (3=41 to 60%) | 4 (4=61 to 80%) | 5 (5=81 to 100%) | 5 (5=81 to 100%) | 2 (2=21 to 40%) | 5 (5=81 to 100%) |
| N#Cc1cccc(Oc2ncc(Cl)cn2)c1SCCOCC(F)(F)F [Compound A107] | 5 (5=81 to 100%) | 5 (5=81 to 100%) | 2 (2=21 to 40%) | 4 (4=61 to 80%) | 5 (5=81 to 100%) | 5 (5=81 to 100%) | 3 (3=41 to 60%) | 5 (5=81 to 100%) |
| N#Cc1cccc(Oc2ncc(Cl)cn2)c1S(=O)(=O)CCOCC(F)(F)F [Compound A108] | 4 (4=61 to 80%) | 1 (1=0 to 20%) | 2 (2=21 to 40%) | 1 (1=0 to 20%) | 5 (5=81 to 100%) | 1 (1=0 to 20%) | 1 (1=0 to 20%) | 1 (1=0 to 20%) |
| COc1cnc(Oc2cccc(C#N)c2S(=O)(=O)CCCC(F)(F)F)nc1 [Compound A112] | 2 (2=21 to 40%) | 1 (1=0 to 20%) | 2 (2=21 to 40%) | 1 (1=0 to 20%) | 3 (3=41 to 60%) | 1 (1=0 to 20%) | 3 (3=41 to 60%) | 1 (1=0 to 20%) |
| COc1cnc(Oc2cccc(C#N)c2SCCCC(F)(F)F)nc1 [Compound A113] | 5 (5=81 to 100%) | 3 (3=41 to 60%) | 3 (3=41 to 60%) | 2 (2=21 to 40%) | 5 (5=81 to 100%) | 4 (4=61 to 80%) | 3 (3=41 to 60%) | 2 (2=21 to 40%) |
| Cc1cnc(Oc2cccc(C#N)c2SCCCC(F)(F)F)nc1 [Compound A114] | 3 (3=41 to 60%) | 4 (4=61 to 80%) | 4 (4=61 to 80%) | 3 (3=41 to 60%) | 5 (5=81 to 100%) | 4 (4=61 to 80%) | 4 (4=61 to 80%) | 4 (4=61 to 80%) |
| Cc1cnc(Oc2cccc(C#N)c2S(=O)(=O)CCCC(F)(F)F)nc1 [Compound A115] | 4 (4=61 to 80%) | 4 (4=61 to 80%) | 4 (4=61 to 80%) | 3 (3=41 to 60%) | 5 (5=81 to 100%) | 4 (4=61 to 80%) | 5 (5=81 to 100%) | 3 (3=41 to 60%) |
| N#Cc1cccc(Oc2ncc(Cl)cn2)c1SCCCOC(F)(F)F [Compound A116, 3-(5-chloropyrimidin-2-yl)oxy-2-[3-(trifluoromethoxy)propylsulfanyl]benzonitrile] | 5 (5=81 to 100%) | 4 (4=61 to 80%) | 4 (4=61 to 80%) | 4 (4=61 to 80%) | 5 (5=81 to 100%) | 5 (5=81 to 100%) | 5 (5=81 to 100%) | 5 (5=81 to 100%) |
